Measured values published in article PMC6669608, “Evaluation of Oxasqualenoids from the Red Alga Laurencia viridis against Acanthamoeba” (Marine Drugs, 2019).
Like-named read-outs stand apart in the source and are kept apart here.

What was measured:
[1] = test system: Acanthamoeba castellanii Neff trophozoites; test: In vitro activity against Acanthamoeba trophozoites (alamarBlue colorimetric assay); assay type: cell-based, Acanthamoeba castellanii Neff (ATCC 30010); conditions: 96 h, read-out: IC50 against Acanthamoeba castellanii Neff
Experimental: (§1) The antiamoeboid activity of the compounds was evaluated against Acanthamoeba castellanii Neff (ATCC 30010) type strain from the American Type Culture Collection. This strain was axenically incubated in PYG medium (0.75% (w/v) proteose Peptone, 0.75% (w/v) Yeast extract, and 1.5% (w/v) Glucose) supplemented with 10 µg/mL gentamicin (Sigma-Aldrich, Madrid, Spain). As for the cytotoxicity assays, murine macrophages J774A.1 (ATCC TIB-67) were used, cultivated in DMEM medium (Dulbecco’s modified eagle medium, Gibco Life Technologies, California, USA) with 10% supplement of fetal bovine serum (FBS) and 10 µg/mL gentamicin at 37 °C in a 5% CO2 incubator.
The in vitro activities of the different compounds of Laurencia were evaluated using a previously developed colorimetric assay based on the alamarBlue™ Cell Viability Reagent assay (Life Technologies, Barcelona, Spain). Briefly, 50 µL of 5 × 10⁴ trophozoites/mL were seeded onto a 96-well microtiter plate. After 15 min, the adherence of the cells to the plate bottom was confirmed by the use of the inverted microscope Leica DMIL (Leica, Wetzlar, Germany). Furthermore, 50 µL of serial dilutions of each compound was added to the 96-well microtiter plate. Finally, alamarBlue™ was placed into each well at 10% of the final volume and incubated at 26 °C with slight agitation. After 96 h, the fluorescence was measured with EnSpire Multimode Plate Reader (Perkin Elmer, Madrid, Spain) at a wavelength of 570/585 nm. The inhibitory concentration to inhibit the growth of 50% of the parasites (IC50) was calculated through nonlinear regression analysis with 95% confidence limits using the software Sigma Plot 12.0 (Systat Software Inc., London, UK). The experiments were performed three times each, allowing for standard deviation.

[2] = Cytotoxicity assay (alamarBlue); assay type: cell-based, murine; set-up: CC50, toxicity against murine macrophage J774A.1 (unit not given): unit not given beside the values; conditions: mouse, 24 h, 37 °C, read-out: CC50, toxicity against murine macrophage J774.A1
Experimental: as §1
(§2) The cytotoxicity of the tested compounds was determined in vitro with murine macrophages (J774A.1). For this assay, the DMEM culture medium was changed from RPMI without phenol red (Roswell Park Memorial Institute, Thermo Fisher Scientific Inc., Waltham, MA, USA) to L-Glutamine supplemented with 10% (v/v) inactivated FBS and with 10 µg/mL gentamicin. In this assay, the macrophages were counted and seeded into a 96-well microtiter plate, adding 50 µL to each well from a stock solution of 2 × 10^5 cells/mL. Cells were then left to adhere for 15 min to the plate bottom and were checked with the inverted microscope Leica DMIL. After that, 50 µL of a serial dilution of the compounds was added to the 96-well microtiter plate. Finally, alamarBlue™ was added into each well at an amount equal to 10% of the final volume and incubated at 37 °C in the presence of CO2 at 5% for 24 h. After this period of time, as in the in vitro anti-Acanthamoeba assay, the fluorescence was determined with an EnSpire Multimode Plate Reader (PerkinElmer, Inc, Waltham, MA, USA) at a wavelength of 570/585 nm. The cytotoxicity concentration to inhibit the growth of 50% of murine macrophages (CC50) was calculated through nonlinear regression analysis with 95% confidence limits using the software Sigma Plot 12.0 (Systat Software, Inc, San Jose, CA 95110 USA). Experiments were performed three times each, allowing for standard deviation.

[3] = test system: Acanthamoeba castellanii Neff trophozoites; test: In vitro activity against Acanthamoeba trophozoites (alamarBlue colorimetric assay); assay type: cell-based, Acanthamoeba castellanii Neff (ATCC 30010); conditions: 42.5 µM (25 µg/mL)
[4] = test system: murine macrophages J774A.1; test: Cytotoxicity assay (alamarBlue); assay type: cell-based; set-up: CC50, toxicity against murine macrophage J774A.1 (unit not given): unit not given beside the values; conditions: for CC50, toxicity against murine macrophage J774A.1 (unit not given): mouse
Experimental: as §1, §2

[5] = test system: Acanthamoeba castellanii Neff trophozoites; set-up: method as in PMID 30423882; conditions: previous work; read-out: IC50 against Acanthamoeba castellanii Neff; cited from earlier work

In the case of C=C(CC[C@H](O)[C@@]1(C)CC[C@@H](O)C(C)(C)O1)[C@H]1CC[C@H]2O[C@@H]([C@]3(C)CC[C@@H](Br)C(C)(C)O3)CC[C@]2(C)O1 [Compound 3, iubol], the IC50 ([1]; trophozoites, 26 °C) is reported as 5.3 ± 0.87 µM, the CC50 [2] is reported as 7.72 ± 0.22 µM and the “inhibitory effect on the growth of A. castellanii trophozoites (microscopy)” value [3] is reported as “many of the treated cells were dead”.

In the case of CC(C)(O)[C@H]1CC[C@](C)([C@@H]2CC[C@@](C)([C@H]3CC[C@H]4O[C@@H]([C@]5(C)CC[C@@H](Br)C(C)(C)O5)CC[C@]4(C)O3)O2)O1 [Compound 6, saiyacenol A], the IC50 ([1]; trophozoites, 26 °C) is reported as 55.4 ± 6.56 µM and the CC50 [2] is reported as 59.9 ± 8.5 µM.

CC1(C)O[C@](C)([C@H]2CC[C@]3(C)OC(=O)CC[C@H]3O2)CC[C@H]1Br [Compound 11, adejene B] showed an IC50 ([1]; trophozoites, 26 °C) of 48.3 ± 0.55 µM and a CC50 at 24 h ([2]; J774A.1 murine macrophages) greater than 100 µM.

CC(C)(O)C1CCC(C)(C2CCC(C)(C3CCC(C(C)(O)CCC4OC(C)(C)C5CCC4(C)O5)O3)O2)O1 (centres unmarked) [Compound 10, nivariol A] showed an IC50 ([1]; trophozoites, 26 °C) of 102 ± 9.57 µM and a CC50 at 24 h ([2]; J774A.1 murine macrophages) greater than 100 µM.

With C=C(CCC(=O)[C@@]1(C)CC[C@H](C(C)(C)O)O1)[C@H]1CC[C@H]2O[C@@H]([C@]3(C)CC[C@@H](Br)C(C)(C)O3)CC[C@]2(C)O1 [Compound 13, 18-ketodehydrothyrsiferol] the IC50 ([1]; trophozoites, 26 °C) was 29.1 ± 2.84 µM and the CC50 [2] was 23.4 ± 1.76 µM.

For CC(C)(O)[C@H]1CC[C@](C)([C@@H](O)CC[C@](C)(O)[C@H]2CC[C@H]3O[C@@H]([C@]4(C)CC[C@@H](Br)C(C)(C)O4)CC[C@]3(C)O2)O1 [Compound 2, thyrsiferol], the IC50 [1] was 14 ± 1.57 µM, the CC50 at 24 h [2] was greater than 100 µM and the “toxicity against murine macrophages (in words)” value [4] was “not toxic against murine macrophages”. The “CC50, toxicity against murine macrophage J774A.1 (unit not given)” value ([4]; 24 h) was less than 50.

Work on C=C(C)[C@@H]1CC[C@@](C)([C@H]2CC[C@]3(C)O[C@@H](C(=C)CC[C@H](O)[C@@]4(C)CC[C@H](C(C)(C)O)O4)CC[C@H]3O2)O1 [Compound 5, 1,2-dehydropseudodehydrothyrsiferol] yielded an IC50 ([1]; trophozoites, 26 °C) of 105 ± 1.72 µM and a CC50 at 24 h ([2]; J774A.1 murine macrophages) greater than 100 µM.

C=C(CC[C@H](OS(=O)(=O)O)[C@@]1(C)CC[C@H](C(C)(C)O)O1)[C@H]1CC[C@H]2O[C@@H]([C@]3(C)CC[C@@H](Br)C(C)(C)O3)CC[C@]2(C)O1 [Compound 12, 18-sulphatedehydrothyrsiferol] gave an IC50 ([1]; trophozoites, 26 °C) of 43.18 ± 0.14 µM and a CC50 [2] greater than 100 µM.

C[C@@H](c1ncncc1F)[C@](O)(Cn1cncn1)c1ccc(F)cc1F [Voriconazole, voriconazole, reference compound] showed an IC50 ([1]; trophozoites, 26 °C) of 0.94 ± 0.29 µM and a CC50 at 24 h ([2]; J774A.1 murine macrophages) of 2.64 ± 0.27 µM.

With CC(C)(O)[C@H]1CC[C@](C)([C@@H](O)CCC(O)(CO)[C@H]2CC[C@H]3O[C@@H]([C@]4(C)CC[C@@H](Br)C(C)(C)O4)CC[C@]3(C)O2)O1 (some centres unmarked) [Compound 16, 28-hydroxythyrsiferol] the IC50 ([1]; trophozoites, 26 °C) was 104 ± 8.42 µM and the CC50 [2] was greater than 100 µM.

For CC(C)(O)[C@H]1CC[C@](C)([C@@H]2CC[C@](CO)([C@H]3CC[C@H]4O[C@@H]([C@]5(C)CC[C@@H](Br)C(C)(C)O5)CC[C@]4(C)O3)O2)O1 [Compound 9, 28-hydroxysaiyacenol B], the IC50 ([1]; trophozoites, 26 °C) was 59.9 ± 10.1 µM and the CC50 [2] was greater than 100 µM.

With CC(C)(O)[C@H]1CC[C@](C)([C@@H]2CC[C@@](CO)([C@H]3CC[C@H]4O[C@@H]([C@]5(C)CC[C@@H](Br)C(C)(C)O5)CC[C@]4(C)O3)O2)O1 [Compound 8, 28-hydroxysaiyacenol A] the IC50 ([1]; trophozoites, 26 °C) was 66.2 ± 3.81 µM and the CC50 [2] was greater than 100 µM.

With C[C@@H]1[C@H](O)[C@@H](C)/C=C/C=C/C=C/C=C/C=C/C=C/C=C/[C@H](O[C@@H]2O[C@H](C)[C@@H](O)[C@H](N)[C@@H]2O)C[C@@H]2O[C@](O)(C[C@@H](O)C[C@@H](O)[C@H](O)CC[C@@H](O)C[C@@H](O)CC(=O)O[C@H]1C)C[C@H](O)[C@H]2C(=O)O [Amphotericin B, amphotericin B, reference compound] the IC50 ([1]; trophozoites, 26 °C) was 39.6 ± 0.56 µM and the CC50 at 24 h ([2]; J774A.1 murine macrophages) was greater than 100 µM.

In the case of 3α-bromojohnstane, the IC50 [5] is given as 41.5 µM.

Compound CC(C)(O)[C@H]1CC[C@](C)([C@@H]2CC[C@](CI)([C@H]3CC[C@H]4O[C@@H]([C@]5(C)CC[C@@H](Br)C(C)(C)O5)CC[C@]4(C)O3)O2)O1 [Compound 15, 28-iodosaiyacenol B] has an IC50 ([1]; trophozoites, 26 °C) of 54.3 ± 6.56 µM and a CC50 [2] greater than 100 µM.

Compound CC(C)(O)[C@H]1CC[C@](C)([C@@H]2CC[C@@](CI)([C@H]3CC[C@H]4O[C@@H]([C@]5(C)CC[C@@H](Br)C(C)(C)O5)CC[C@]4(C)O3)O2)O1 [Compound 14, 28-iodosaiyacenol A] has an IC50 ([1]; trophozoites, 26 °C) of 50.5 ± 3.05 µM and a CC50 [2] of 29.45 ± 0.2 µM.

[H]/N=C(\N/C(=N/[H])NCCCCCCNC(=N)NC(=N)Nc1ccc(Cl)cc1)Nc1ccc(Cl)cc1 [Chlorhexidine, chlorhexidine, reference compound] gave a CC50 at 24 h ([2]; J774A.1 murine macrophages) of 6.64 ± 0.35 µM.

For C=C(CC[C@H](O)[C@@]1(C)CC[C@](O)(C(C)(C)O)O1)[C@H]1CC[C@H]2O[C@@H]([C@]3(C)CC[C@@H](Br)C(C)(C)O3)CC[C@]2(C)O1 [Compound 4, 22-hydroxydehydrothyrsiferol], the IC50 ([1]; trophozoites, 26 °C) was 17 ± 4.57 µM, the CC50 [2] was greater than 100 µM and the “toxicity against murine macrophages (in words)” value [4] was “not toxic against murine macrophages”. For the same compound, the “CC50, toxicity against murine macrophage J774A.1 (unit not given)” value [4] was less than 50.

CC(C)(O)[C@H]1CC[C@](C)([C@@H]2CC[C@](C)([C@H]3CC[C@H]4O[C@@H]([C@]5(C)CC[C@@H](Br)C(C)(C)O5)CC[C@]4(C)O3)O2)O1 [Compound 7, saiyacenol B] gave an IC50 ([1]; trophozoites, 26 °C) of 77.9 ± 3.3 µM and a CC50 [2] greater than 100 µM.
